From US20240336574A1 (LATIGO BIOTHERAPEUTICS, INC., priority 2021, published 2024)
Read-outs that look alike come from different tables or passages of the source.

Target: T1, recombinant human NaV1.8 stably transfected HEK cells (Homo sapiens, UniProt Q9Y5Y9)
T1 construct: expressed in transfected cells; host or cells: HEK cells, stably transfected
Assay: Compound profiling on NaV1.8, human NaV1.8 cell line, SyncroPatch384PE automated patch clamp assay (Example 102, first set of compounds, Table 16)
Format: cell-based
Details: human NaV1.8 HEK cells, Table 16 (first set of compounds)
Description: Compound Profiling on NaV1.8—Human NaV1.8 Cell Line—SyncroPatch384PE Assay
Compounds were tested on recombinant human NaV1.8 stably transfected HEK cells using the SyncroPatch384PE system, an automated patch clamp device. Cells were cultured at 37° C./5% CO2 in DMEM medium supplemented with GlutaMAX I, NEAA 1%, FBS 10% and seeded in T175 flasks. Cells were cultured at 30° C. one day prior to recording sodium currents. On the day of the recordings, cells were detached with 0.05% Trypsin-EDTA, resuspended in serum free DMEM medium and placed into the SyncroPatch384PE 6° C. pre-cooled cell hotel and shaken at 200 rpm. Intracellular solution (IC) contained, in mM: 10, CsCl; 110, CsF; 20, EGTA; 10, HEPES. Extracellular solution (EC) contained, in mM: 140, NaCl; 4, KCl; 5, Glucose; 10, HEPES; 2, CaCl2; 1, MgCl2. Washing solution contained, in mM: 40, NMDG; 100, NaCl; 4, KCl; 10, Glucose; 10, HEPES; 5, CaCl2; 1, MgCl2.
Compounds were tested in triplicate in 0.1% DMSO and 0.030% Pluronic Acid. Compounds were diluted 1:3 in EC solution to create a 10-point concentration response curve, spanning a final concentration range from 20-0.001 μM in the assay plate. Each plate contained tetracaine and another tool compound as positive controls. Up to 8 compounds were tested on one plate. 250 μM tetracaine and 0.1% DMSO were used as high and low controls, respectively. Whole cell patch clamp recordings were conducted according to Nanion's standard procedure for SyncroPatch384PE®. Cells were held at a holding potential of −120 mV. A depolarization step to 10 mV for 30 ms was applied (P1 measurement), followed by a hyperpolarization step to −100 mV for 100 ms. An inactivation step at −40 mV for 10 sec was applied before stepping to −100 mV for 20 ms, followed by a step to 10 mV for 30 ms (P2 measurement) and then back to −100 mV for 30 ms. Sweep interval was 15 sec with a sampling rate of 10 kHz. Following establishment of the whole-cell configuration in EC, two washing steps with reference buffer were performed to stabilize the baseline. Compounds were then applied by the SynchroPatch into each well and the current was recorded for five minutes in EC, followed by application of tetracaine to achieve full block at the end of the experiment. The potency of the compounds was assessed on two read-outs, resting state block (P1 measurement) or inactivated state block (P2 measurement) to obtain IC50 values. Values were normalized to high (tetracaine) and low (DMSO) controls. The IC50 values are listed in Table 16 as follows: “A” represents an IC50 less than or equal to 20 nM, “B” represents an IC50 greater than 20 nM to less than or equal to 40 nM, “C” represents an IC50 greater than 40 nM to less than or equal to 200 nM, “D” represents an IC50 greater than 200 nM to less than or equal to 500 nM.

[1] = inactivated state block (P2 measurement), read-out: P2IC50
[2] = resting state block (P1 measurement), read-out: P1IC50

T1 sequence (Q9Y5Y9 whole entry): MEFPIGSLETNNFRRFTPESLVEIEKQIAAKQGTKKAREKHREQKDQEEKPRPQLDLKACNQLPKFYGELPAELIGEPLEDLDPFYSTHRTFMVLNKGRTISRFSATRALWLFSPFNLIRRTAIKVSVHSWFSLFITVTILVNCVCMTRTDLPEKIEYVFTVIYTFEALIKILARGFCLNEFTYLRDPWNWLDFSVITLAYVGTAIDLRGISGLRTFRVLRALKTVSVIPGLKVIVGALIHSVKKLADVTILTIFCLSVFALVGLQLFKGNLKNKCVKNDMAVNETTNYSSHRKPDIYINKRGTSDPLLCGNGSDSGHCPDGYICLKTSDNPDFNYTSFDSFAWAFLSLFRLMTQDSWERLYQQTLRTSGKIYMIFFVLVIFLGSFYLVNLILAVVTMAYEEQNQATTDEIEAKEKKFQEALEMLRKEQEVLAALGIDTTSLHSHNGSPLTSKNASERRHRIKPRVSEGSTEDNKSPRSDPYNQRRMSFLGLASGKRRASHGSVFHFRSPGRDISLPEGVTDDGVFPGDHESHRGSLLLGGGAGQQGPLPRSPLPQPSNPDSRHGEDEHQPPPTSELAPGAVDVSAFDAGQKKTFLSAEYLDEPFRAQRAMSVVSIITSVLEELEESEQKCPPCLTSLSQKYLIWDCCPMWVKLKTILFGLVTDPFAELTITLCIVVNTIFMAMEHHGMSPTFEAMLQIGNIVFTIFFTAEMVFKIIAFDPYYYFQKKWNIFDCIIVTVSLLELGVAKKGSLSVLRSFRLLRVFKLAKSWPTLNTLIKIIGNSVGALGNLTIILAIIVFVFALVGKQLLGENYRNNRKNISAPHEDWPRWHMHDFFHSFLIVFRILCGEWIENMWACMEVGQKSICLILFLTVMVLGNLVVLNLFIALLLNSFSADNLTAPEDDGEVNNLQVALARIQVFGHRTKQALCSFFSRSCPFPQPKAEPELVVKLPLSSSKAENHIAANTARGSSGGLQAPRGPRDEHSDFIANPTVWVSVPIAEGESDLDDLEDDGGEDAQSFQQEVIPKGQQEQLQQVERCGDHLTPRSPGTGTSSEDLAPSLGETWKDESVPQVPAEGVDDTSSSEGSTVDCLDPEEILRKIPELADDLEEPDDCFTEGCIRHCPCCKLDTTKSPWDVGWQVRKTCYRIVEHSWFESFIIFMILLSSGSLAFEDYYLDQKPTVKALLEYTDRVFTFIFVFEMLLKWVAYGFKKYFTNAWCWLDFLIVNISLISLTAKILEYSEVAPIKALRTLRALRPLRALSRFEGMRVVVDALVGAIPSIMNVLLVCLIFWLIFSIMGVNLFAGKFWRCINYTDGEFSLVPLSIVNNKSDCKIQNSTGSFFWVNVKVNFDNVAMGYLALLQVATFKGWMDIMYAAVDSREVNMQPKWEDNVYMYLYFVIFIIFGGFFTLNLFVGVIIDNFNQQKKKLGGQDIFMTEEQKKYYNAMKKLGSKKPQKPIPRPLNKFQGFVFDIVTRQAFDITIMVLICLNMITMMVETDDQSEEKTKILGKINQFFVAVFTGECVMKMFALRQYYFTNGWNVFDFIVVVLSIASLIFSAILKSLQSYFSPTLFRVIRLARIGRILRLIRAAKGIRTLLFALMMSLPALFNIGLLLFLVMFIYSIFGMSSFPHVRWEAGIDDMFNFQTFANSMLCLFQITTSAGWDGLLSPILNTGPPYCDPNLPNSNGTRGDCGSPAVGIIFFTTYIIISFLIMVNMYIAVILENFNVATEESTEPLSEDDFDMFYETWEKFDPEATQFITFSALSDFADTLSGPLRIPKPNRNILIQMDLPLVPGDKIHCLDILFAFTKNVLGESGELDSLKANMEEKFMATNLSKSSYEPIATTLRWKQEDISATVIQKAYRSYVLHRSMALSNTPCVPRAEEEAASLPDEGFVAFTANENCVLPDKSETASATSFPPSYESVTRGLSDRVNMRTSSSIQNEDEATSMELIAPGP

Structure (SMILES) | IC50 [1] [nM] | IC50 [2] [nM]
COc1cc(Cl)ccc1Oc1nnc(C(F)(F)F)c(C)c1C(=O)Nc1ccc(C(N)=O)cc1 [Compound 1403] | 20 to 40 | 20 to 40
Cc1cccc(Cl)c1Oc1nnc(C(F)(F)F)c(C)c1C(=O)Nc1ccc(C(N)=O)cc1 [Compound 1401] | 200 to 500 | 200 to 500
Cc1nc(F)ccc1Oc1ncc(C(F)(F)F)cc1C(=O)Nc1cccc([S@@](C)(=N)=O)c1 (single isomer, unassigned) [Compound 1594] | 40 to 200 | 40 to 200
COc1c(Oc2nnc3c(c2C(=O)Nc2cccc(S(C)(=N)=O)c2)CCC3)ccc(F)c1F (stereo not shown) [Compound 1516, 3-(3,4-difluoro-2-methoxyphenoxy)-N-{3-[imino(methyl)oxo-λ^6-sulfanyl]phenyl}-5H,6H,7H-cyclopenta[c]pyridazine-4-carboxamide] | 200 to 500 | 200 to 500
COc1cc(C#N)ccc1Oc1nnc(-c2ccccn2)c(C)c1C(=O)Nc1cccc(S(C)(=N)=O)c1 (stereo not shown) [Compound 1458, 3-(4-cyano-2-methoxyphenoxy)-5-methyl-N-(3-(S-methylsulfonimidoyl)phenyl)-6-(pyridin-2-yl)pyridazine-4-carboxamide] | 200 to 500 | 200 to 500
COc1ncc(Oc2ncc(C(F)(F)F)cc2C(=O)Nc2cccc(S(C)(=N)=O)c2)cc1F (stereo not shown) [Compound 1699] | 200 to 500 | 200 to 500
CC(C#N)Oc1cc(F)c(Oc2ncc(C(F)(F)F)cc2C(=O)Nc2cccc(S(C)(=N)=O)c2)cc1F (stereo not shown) [Compound 1689] | 40 to 200 | 40 to 200
CS(=N)(=O)c1cccc(NC(=O)c2cc(C(F)(F)F)cnc2Oc2ccc(OC3CC3)cc2)c1 (stereo not shown) [Compound 1588] | 40 to 200 | 40 to 200
Cc1nc(F)ccc1Oc1ncc(C(F)(F)F)cc1C(=O)Nc1cccc(S(C)(=N)=O)c1 (stereo not shown) [Compound 1589] | 40 to 200 | 40 to 200
CS(=N)(=O)c1cccc(NC(=O)c2cc(C(F)(F)F)cnc2Oc2ccc(-n3ccnc3)cc2)c1 (stereo not shown) [Compound 1586] | 200 to 500 | 200 to 500
NC(=O)c1ccc(NC(=O)c2cc(C(F)(F)F)cnc2OC2CC(C(F)(F)F)C2)cc1 (mixture of isomers) [Compound 1670] | 200 to 500 | 200 to 500
COc1cc(F)ccc1Oc1ncc(C(F)(F)F)cc1C(=O)Nc1cc(S(C)(=O)=O)ccc1F [Compound 1576] | 40 to 200 | 40 to 200
COc1nc(C)c(Oc2ncc(C(F)(F)F)cc2C(=O)Nc2cccc(S(C)(=N)=O)c2)cc1F (stereo not shown) [Compound 1639] | 200 to 500 | 200 to 500
COC(=O)C12CC(NC(=O)c3cc(C(F)(F)F)cnc3Oc3ccc(F)c(F)c3OC)(C1)C2 [Compound 1679] | 200 to 500 | 200 to 500
CS(=N)(=O)c1cccc(NC(=O)c2cc(C(F)(F)F)cnc2OC23CC(C(F)(F)F)(C2)C3)c1 (stereo not shown) [Compound 1633] | 200 to 500 | 40 to 200

Further lines, results first:

IC50 [1] [nM] | IC50 [2] [nM] | Structure (SMILES)
≤ 20 | ≤ 20 | COc1c(Oc2nnc(C(F)(F)F)c(C)c2C(=O)Nc2ccc[n+]([O-])c2)ccc(F)c1F [Compound 1476, 3-(3,4-difluoro-2-methoxy-phenoxy)-5-methyl-N-(1-oxidopyridin-1-ium-3-yl)-6-(trifluoromethyl)pyridazine-4-carboxamide]
 | ≤ 20 | Cc1c(C(F)(F)F)nnc(Oc2ccc(OC(F)F)c(F)c2F)c1C(=O)Nc1cccc(S(C)(=N)=O)c1 (single isomer, unassigned) [Compound 1512, 3-[4-(difluoromethoxy)-2,3-difluorophenoxy]-N-{3-[imino(methyl)oxo-λ^6-sulfanyl]phenyl}-5-methyl-6-(trifluoromethyl)pyridazine-4-carboxamide]
20 to 40 | ≤ 20 | COc1c(Oc2nnc(C(F)(F)F)c(C)c2C(=O)Nc2cccc(S(C)(=N)=O)c2)ccc(F)c1F (stereo not shown) [Compound 23]
≤ 20 | ≤ 20 | Cc1c(C(F)(F)F)nnc(Oc2ccc(OC(F)(F)F)cc2F)c1C(=O)Nc1cccc(S(C)(=N)=O)c1 (single isomer, unassigned) [Compound 1496, 3-[2-fluoro-4-(trifluoromethoxy)phenoxy]-N-{3-[imino(methyl)oxo-λ^6-sulfanyl]phenyl}-5-methyl-6-(trifluoromethyl)pyridazine-4-carboxamide]
≤ 20 | ≤ 20 | Cc1cc(OC(F)(F)F)ccc1Oc1ncc(C(F)(F)F)cc1C(=O)Nc1cccc(S(C)(=O)=O)c1 [Compound 1573, N-(3-methylsulfonylpheny1)-2-[2-methyl-4-(trifluoromethoxy)phenoxy]-5-(trifluoromethyl)pyridine-3-carboxamide]
≤ 20 | ≤ 20 | COc1nc(C2CC2)ccc1Oc1nnc(C(F)(F)F)c(C)c1C(=O)Nc1cccc(S(C)(=N)=O)c1 (stereo not shown) [Compound 1550, 3-[(6-cyclopropyl-2-methoxy-3-pyridyl)oxy]-5-methyl-N-[3-(methylsulfonimidoyl)phenyl]-6-(trifluoromethyl)pyridazine-4-carboxamide]
≤ 20 | ≤ 20 | Cc1c(C(F)(F)F)nnc(Oc2ccc(OC(F)(F)F)c(F)c2F)c1C(=O)Nc1cccc(S(C)(=N)=O)c1 (single isomer, unassigned) [Compound 1477, 3-[2,3-difluoro-4-(trifluoromethoxy)phenoxy]-5-methyl-N-[3-(methylsulfonimidoyl)phenyl]-6-(trifluoromethyl)pyridazine-4-carboxamide]
≤ 20 | ≤ 20 | COc1ccc(Oc2nnc(C(F)(F)F)c(C)c2C(=O)Nc2cccc(S(C)(=N)=O)c2)c(C)c1F (stereo not shown) [Compound 1504, 3-(3-fluoro-4-methoxy-2-methylphenoxy)-N-{3-[imino(methyl)oxo-λ^6-sulfanyl]phenyl}-5-methyl-6-(trifluoromethyl)pyridazine-4-carboxamide]
20 to 40 | ≤ 20 | COc1cc(F)ccc1Oc1nnc(C(F)(F)F)c(OC)c1C(=O)Nc1cccc([S@@](C)(=N)=O)c1 [Compound 1517, (S)-3-(4-fluoro-2-methoxyphenoxy)-5-methoxy-N-(3-(S-methylsulfonimidoyl)phenyl)-6-(trifluoromethyl)pyridazine-4-carboxamide]
≤ 20 | ≤ 20 | Cc1ccc(Oc2ncc(C(F)(F)F)cc2C(=O)Nc2cccc(S(C)(=N)=O)c2)c(OC(F)F)n1 (stereo not shown) [Compound 1690]
≤ 20 | ≤ 20 | Cc1c(C(F)(F)F)nnc(Oc2ccc(OC(F)(F)F)cc2F)c1C(=O)Nc1cccc(S(C)(=N)=O)c1 (stereo not shown) [Compound 1495, 3-[2-fluoro-4-(trifluoromethoxy)phenoxy]-5-methyl-N-[3-(methylsulfonimidoyl)phenyl]-6-(trifluoromethyl)pyridazine-4-carboxamide]
≤ 20 | ≤ 20 | COc1cc(F)c(F)cc1Oc1ncc(C(F)(F)F)cc1C(=O)Nc1cccc(S(C)(=O)=O)c1 [Compound 1615]
≤ 20 | ≤ 20 | COc1cc(C#N)ccc1Oc1nnc(-c2nccs2)c(C)c1C(=O)Nc1cccc(S(C)(=N)=O)c1 (stereo not shown) [Compound 1463, 3-(4-cyano-2-methoxy-phenoxy)-5-methyl-N-[3-(methylsulfonimidoyl)phenyl]-6-thiazol-2-yl-pyridazine-4-carboxamide]
≤ 20 | ≤ 20 | COc1nc(Br)ccc1Oc1ncc(C(F)(F)F)cc1C(=O)Nc1cccc(S(C)(=N)=O)c1 (stereo not shown) [Compound 1685]
≤ 20 | ≤ 20 | Cc1c(C(F)(F)F)nnc(Oc2ccc(OC3CCC3)c(F)c2F)c1C(=O)Nc1cccc(S(C)(=O)=O)c1 [Compound 1426]
≤ 20 | ≤ 20 | Cc1cc(F)ccc1Oc1ncc(C(F)(F)F)c(C)c1C(=O)Nc1cccc(S(C)(=N)=O)c1 (stereo not shown) [Compound 1557, 2-(4-fluoro-2-methylphenoxy)-4-methyl-N-(3-(S-methylsulfonimidoyl)phenyl)-5-(trifluoromethyl)nicotinamide]
